US12312332B2 (Merck Sharp & Dohme LLC., priority 2019, dated 2025)

Target: T1, human OX2R (Homo sapiens, UniProt O43614)
T1 construct: expressed in transfected cells; host or cells: Chinese hamster ovary (CHO) cells, kept under G418 selection
T1 sequence (O43614 1-444): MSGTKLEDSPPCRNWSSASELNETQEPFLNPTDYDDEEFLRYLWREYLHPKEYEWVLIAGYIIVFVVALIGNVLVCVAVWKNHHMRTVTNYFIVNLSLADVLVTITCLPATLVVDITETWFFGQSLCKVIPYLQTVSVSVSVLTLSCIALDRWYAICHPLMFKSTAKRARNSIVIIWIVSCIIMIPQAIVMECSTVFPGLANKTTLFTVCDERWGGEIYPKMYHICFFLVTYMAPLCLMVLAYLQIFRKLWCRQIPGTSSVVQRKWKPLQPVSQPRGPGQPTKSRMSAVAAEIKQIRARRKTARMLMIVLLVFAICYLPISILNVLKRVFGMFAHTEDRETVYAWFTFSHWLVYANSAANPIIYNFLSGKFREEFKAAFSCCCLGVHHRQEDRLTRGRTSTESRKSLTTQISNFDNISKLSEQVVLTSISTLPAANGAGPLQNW
Test: IPOne (IP-One) orexin receptor agonist assay in CHO cells expressing human OX2R
Format: cell-based
Conditions: for EC50: CHO cells expressing human OX2R, IP-One detection, 2 hours incubation, four parameter logistic fit, read-out: OX2R Potency, EC50; for % max agonist effect (Emax): human OX2R, percentage of sample raw value/mean max effect (reference compound at 1 uM with 100% activity)

| EC50 | % max agonist effect (Emax) | SMILES |
| --- | --- | --- |
| 173 nM | 99.1% | CS(=O)(=O)N[C@H]1CCN(c2ccc(O)cn2)[C@H]1CO[C@H]1CC[C@@H](c2ccccc2)CC1 [Example 68, N-((2R,3S)-1-(5-hydroxypyridin-2-yl)-2-((((CIS)-4-phenylcyclohexyl)oxy)methyl)pyrrolidin-3-yl)methanesulfonamide] |
| 2180 nM | 92.6% | Cc1ccnc(N2CC[C@H](NS(C)(=O)=O)[C@@H]2CO[C@H]2CC[C@@H](c3ccccc3)CC2)n1 [Example 67, N-((2R,3S)-1-(4-methylpyrimidin-2-yl)-2-((((CIS)-4-phenylcyclohexyl)oxy)methyl)pyrrolidin-3-yl)methanesulfonamide] |
| 0.23 nM | 101.6% | CS(=O)(=O)N[C@H]1CCN(c2nccc(O)c2F)[C@H]1CO[C@H]1CC[C@@H](c2cccc(F)c2)CC1 [Example 96, N-((2R,3S)-1-(3-fluoro-4-hydroxypyridin-2-yl)-2-((((CIS)-4-(3-fluorophenyl)cyclohexyl)oxy)methyl)pyrrolidin-3-yl)methanesulfonamide] |
| 8490 nM | 57.0% | CS(=O)(=O)N[C@H]1CCN(c2ccc(F)c(C(F)F)c2)[C@H]1CO[C@H]1CC[C@@H](c2ccccc2)CC1 [Example 21, N-((2R,3S)-1-(3-(difluoromethyl)-4-fluorophenyl)-2-((((CIS)-4-phenylcyclohexyl)oxy)methyl)pyrrolidin-3-yl)methanesulfonamide] |
| 1670 nM | 96.0% | CS(=O)(=O)N[C@H]1CCN(c2ccncc2C(F)(F)F)[C@H]1CO[C@H]1CC[C@@H](c2ccccc2)CC1 [Example 70, N-((2R,3S)-2-((((CIS)-4-phenylcyclohexyl)oxy)methyl)-1-(3-(trifluoromethyl)pyridin-4-yl)pyrrolidin-3-yl)methanesulfonamide] |
| 331 nM | 101.1% | CS(=O)(=O)N[C@H]1CCN(c2ncc(F)cc2F)[C@H]1CO[C@H]1CC[C@@H](c2ccccc2)CC1 [Example 63, N-((2R,3S)-1-(3,5-difluoropyridin-2-yl)-2-((((CIS)-4-phenylcyclohexyl)oxy)methyl)pyrrolidin-3-yl)methanesulfonamide] |
| 1120 nM | 97.4% | CS(=O)(=O)N[C@H]1CCN(c2nc(Br)cs2)[C@H]1CO[C@H]1CC[C@@H](c2ccccc2)CC1 [Example 108, N-((2R,3S)-1-(4-bromothiazol-2-yl)-2-((((CIS)-4-phenylcyclohexyl)oxy)methyl)pyrrolidin-3-yl)methanesulfonamide] |
| 347 nM | 99.8% | CS(=O)(=O)N[C@H]1CCN(c2ccsc2)[C@H]1CO[C@H]1CC[C@@H](c2ccccc2)CC1 [Example 19, N-((2R,3S)-2-((((CIS)-4-phenylcyclohexyl)oxy)methyl)-1-(thiophen-3-yl)pyrrolidin-3-yl)methanesulfonamide] |
| 140 nM | 97.7% | Cc1nc(N2CC[C@H](NS(C)(=O)=O)[C@@H]2CO[C@H]2CC[C@@H](c3ccccc3)CC2)cs1 [Example 109, N-((2R,3S)-1-(2-methylthiazol-4-yl)-2-((((CIS)-4-phenylcyclohexyl)oxy)methyl)pyrrolidin-3-yl)methanesulfonamide] |
| 930 nM | 87.6% | CS(=O)(=O)N[C@H]1CCN(c2cnc3oncc3c2)[C@H]1CO[C@H]1CC[C@@H](c2ccccc2)CC1 [Example 90, N-((2R,3S)-1-(isoxazolo[5,4-b]pyridin-5-yl)-2-((((CIS)-4-phenylcyclohexyl)oxy)methyl)pyrrolidin-3-yl)methanesulfonamide] |
| 24.3 nM | 98.5% | CC(C)[C@H]1CC[C@@H](OC[C@H]2[C@@H](NS(C)(=O)=O)CCN2c2nccc(O)c2F)CC1 [Example 162, N-((2R,3S)-1-(3-fluoro-4-hydroxypyridin-2-yl)-2-((((CIS)-4-isopropylcyclohexyl)oxy)methyl)pyrrolidin-3-yl) methanesulfonamide] |
| > 10000 nM | 15.8% | CS(=O)(=O)N[C@H]1CCN(c2cc(C(F)F)cc(C(F)F)n2)[C@H]1CO[C@H]1CC[C@@H](c2ccccc2)CC1 [Example 142, N-((2R,3S)-1-(4,6-bis(difluoromethyl)pyridin-2-yl)-2-((((CIS)-4-phenylcyclohexyl)oxy)methyl)pyrrolidin-3-yl)methanesulfonamide] |
| 0.76 nM | 101.4% | CS(=O)(=O)N[C@H]1CCN(c2ncc(Cl)c(O)c2F)[C@H]1CO[C@H]1CC[C@@H](c2cccc(F)c2)CC1 [Example 98, N-((2R,3S)-1-(5-chloro-3-fluoro-4-hydroxypyridin-2-yl)-2-((((CIS)-4-(3-fluorophenyl)cyclohexyl)oxy)methyl)pyrrolidin-3-yl)methanesulfonamide] |
| 703 nM | 97.9% | Cc1sc(N2CC[C@H](NS(C)(=O)=O)[C@@H]2CO[C@H]2CC[C@@H](c3ccccc3)CC2)nc1O [Example 105, N-((2R,3S)-1-(4-hydroxy-5-methylthiazol-2-yl)-2-((((CIS)-4-phenylcyclohexyl)oxy)methyl)pyrrolidin-3-yl)methanesulfonamide] |
| 4640 nM | 81.2% | CS(=O)(=O)N[C@H]1CCN(c2ccc(=O)n(C(F)F)c2)[C@H]1CO[C@H]1CC[C@@H](c2ccccc2)CC1 [Example 23, N-((2R,3S)-1-(1-(difluoromethyl)-6-oxo-1,6-dihydropyridin-3-yl)-2-((((CIS)-4-phenylcyclohexyl)-oxy)methyl)pyrrolidin-3 - yl)methanesulfonamide] |
| 1190 nM | 93% | COC(=O)c1csc(N2CC[C@H](NS(C)(=O)=O)[C@@H]2CO[C@H]2CC[C@@H](c3ccccc3)CC2)n1 [Example 103, methyl 2-((2R,3S)-3-(methylsulfonamido)-2-((((CIS)-4-phenylcyclohexyl)oxy)methyl)pyrrolidin-1-yl)thiazole-4-carboxylate] |
| 346 nM | 97.6% | COc1cccc(N2CC[C@H](NS(C)(=O)=O)[C@@H]2CO[C@H]2CC[C@@H](c3ccccc3)CC2)n1 [Example 152, N-((2R,3S)-1-(6-methoxypyridin-2-yl)-2-((((CIS)-4-phenylcyclohexyl)oxy)methyl)pyrrolidin-3-yl)methanesulfonamide] |
| 178 nM | 99.2% | CS(=O)(=O)N[C@H]1CCN(c2cnc(C3CC3)cn2)[C@H]1CO[C@H]1CC[C@@H](c2ccccc2)CC1 [Example 66, N-((2R,3S)-1-(5-cyclopropylpyrazin-2-yl)-2-((((CIS)-4-phenylcyclohexyl)oxy)methyl)pyrrolidin-3-yl)methanesulfonamide] |
| 105 nM | 99.7% | COc1ccnc(N2CC[C@H](NS(C)(=O)=O)[C@@H]2CO[C@H]2CC[C@@H](c3ccccc3)CC2)c1 [Example 73, N-((2R,3S)-1-(4-methoxypyridin-2-yl)-2-((((CIS)-4-phenylcyclohexyl)oxy)methyl)pyrrolidin-3-yl)methanesulfonamide] |
| 33.2 nM | 100.2% | Cn1ccc(N2CC[C@H](NS(C)(=O)=O)[C@@H]2CO[C@H]2CC[C@@H](c3ccccc3)CC2)cc1=O [Example 118, N-((2R,3S)-1-(1-methyl-2-oxo-1,2-dihydropyridin-4-yl)-2-((((CIS)-4-phenylcyclohexyl)oxy)methyl)pyrrolidin-3-yl)methanesulfonamide] |
| 2 nM | 100.3% | CS(=O)(=O)N[C@H]1CCN(c2nccc(O)c2F)[C@H]1CO[C@H]1CC[C@@H](c2c(F)ccc(F)c2F)CC1 [Example 161, N-((2R,3S)-1-(3-fluoro-4-hydroxypyridin-2-yl)-2-((((CIS)-4-(2,3,6-trifluorophenyl)cyclohexyl)oxy)methyl)pyrrolidin-3-yl)methanesulfonamide] |
| 1070 nM | 97.3% | CS(=O)(=O)N[C@H]1CCN(c2cncc3ccccc23)[C@H]1CO[C@H]1CC[C@@H](c2ccccc2)CC1 (relative stereo) [Example 4, N-((CIS)-1-(isoquinolin-4-yl)-2-((((CIS)-4-phenylcyclohexyl)oxy)methyl)pyrrolidin-3-yl)methanesulfonamide] |
| 271 nM | 99.4% | CS(=O)(=O)N[C@H]1CCN(c2csc(C3CC3)n2)[C@H]1CO[C@H]1CC[C@@H](c2ccccc2)CC1 [Example 69, N-((2R,3S)-1-(2-cyclopropylthiazol-4-yl)-2-((((CIS)-4-phenylcyclohexyl)oxy)methyl)pyrrolidin-3-yl)methanesulfonamide] |
| 108 nM | 100% | Cn1cccc(N2CC[C@H](NS(C)(=O)=O)[C@@H]2CO[C@H]2CC[C@@H](c3ccccc3)CC2)c1=O [Example 111, N-((2R,3S)-1-(1-methyl-2-oxo-1,2-dihydropyridin-3-yl)-2-((((CIS)-4-phenylcyclohexyl)oxy)methyl)pyrrolidin-3-yl)methanesulfonamide] |
| 4050 nM | 87.6% | CS(=O)(=O)N[C@H]1CCN(c2ccncc2)[C@H]1CO[C@H]1CC[C@@H](c2ccccc2)CC1 [Example 57, N-((2R,3S)-2-((((CIS)-4-phenylcyclohexyl)oxy)methyl)-1-(pyridin-4-yl)pyrrolidin-3-yl)methanesulfonamide] |
